The source of these data is patent publication US8771652B2, “Methods of blocking ultraviolet radiation and promoting skin growth using terpenes and terpenoids” (New York University, priority 2009, dated 2014).

In data set [1] the test system is human transplanted pancreatic adenocarcinomas. To be noted: in vivo; cited from earlier work.
The conditions of data set [2]: in vivo; cited from earlier work.
The test system of data set [3] is skin. To be noted: guinea pig, in vivo; cited from earlier work.
Data set [4] concerns skin. To be noted: mouse, in vivo; cited from earlier work.
Data set [5] deals with skin of SKH1 hairless mice. Kind of data set: Sunburn (erythema) prevention by terpenes with solar-spectrum UVR exposure. Type of data set: in vivo, mouse. To be noted: 4 daily 30 microL droplets before 15 minute exposure to 3.0 kJ/m2 UVR.
Experimental: All experiments were performed with female hairless mice (SKH1) utilizing solar spectrum ultraviolet radiation (UVR). Each experiment was performed in triplicate including controls and UVR-exposed mice and included a total of 22 mice per experiment for a total of 66 mice. The protocol included untreated mice, UVR-irradiated mice as controls for the terpene treatments, UVR+terpene mice and terpene-only mice.
Four solar simulating FS-20 fluorescent lamps were used to deliver 3 kJ/m^2 measured by a calibrated International Light UV radiometer at the lamp distance between 20 to 24 cm. The UVR dose was selected to be just above the minimal erythemal dose for producing a ‘sunburn’ reaction in mouse skin (this is very similar to the minimal erythemal dose of fair-skinned humans).
Each terpene was given to each mouse per os (by mouth) in 15-30 μL droplets (˜15-30 μg) via micropipette once each day for 4 consecutive days prior to and/or subsequent to UVR exposure. Animals were observed and photographed every 24 hours for a period of 6-7 days after the irradiation. Each terpene was administered in pure form. […] The UVR exposure of 3 kJ/m^2 was delivered seven (7) days after the last dose was administered. The animals were observed and photographed. […] Liponeate, a triglyceride fraction of coconut oil was used as a diluent. Concentration 1, 10 and 100% were tested. […]
Data set [6] deals with skin. To be noted: in vivo; cited from earlier work.
For data set [7], the system named is gene expression in mouse dorsal skin. As to the kind of experiment: Affymetrix gene expression microarray of mouse skin after terpene and UVR. To be noted: for loricrin and vascular endothelial growth factor (VEGF) genes / matrix metalloproteinases: ingestion, animal models; for inflammation genes induced by UVR: per os daily for 4 days in 30 microL droplets prior to irradiation. Type of data set: in vivo. As to the method: Animals for the histology and microarray analysis were euthanized 24 hours after 4 days of terpene pre-feed and the UVR exposure.
Gene expression microarray analysis was performed as follows: RNA was extracted from a 0.1 g sample of mouse skin and an equal quantity of keratinocytes by using the TRIZOL reagent (Invitrogen, Carlsbad, Calif., USA) according to the manufacture's instructions and 200 μg of total RNA was used for the isolation of poly A+ mRNA by using Oligotex mRNA mini columns (QIAGEN, Valencia, Calif., USA). The final centrifugation was performed after the incubation with 1/10 volume of 3.0 M NaOAc, 2.5 volumes of ethanol and 1 μl glycogen (Boehringer Mannheim GmbH, Mannheim, Germany) at −20° C. overnight. Then the pellet was resuspended in diethylpyrocarbonate (DEPC)-treated water. RNA was labeled with biotin and hybridized to a Mouse genome 430—2 GeneChip® microarray (Affymetrix, Inc. Santa Clara, Calif., USA). Data from the Affymetrix mouse expression array chip were imported into the BRB-ArrayTools Version 3.3.0 developed by the Biometric Research Branch of the U.S. National Cancer Institute for normalization and analysis. […] A value of P≦0.001 was chosen as statistically significant. […] For these calculations the entire list of genes on the Affymetrix (mouse 430—2) microarray was used as the reference list.
Mice were treated with either UVR or UVR+beta-damascenone, and samples of tissue were removed from the dorsal skin for RNA extraction and analysis on an Affymetrix Microarray System utilizing mouse whole genome array chips Affy 430—2. The UVR sample served as the control in this preliminary experiment.

The test system of data set [8] is epidermis (keratinocytes, keratin layer) of SKH1 hairless mice. Kind of data set: Histology of skin after terpene pre-feed and UVR. Format: in vivo, mouse. To be noted: for keratinocyte formation: ingestion, animal models. The method, then: Histopathological diagnosis was performed on the skin samples.
Animals for the histology and microarray analysis were euthanized 24 hours after 4 days of terpene pre-feed and the UVR exposure. Tissue samples from skin and other organs were frozen and prepared for histological diagnosis and for microarray analysis, which consisted of testing gene expression by utilizing Affymetrix mouse microarray chips containing about 39,000 transcripts with 45,101 probe sets.

In data set [9] the test system is skin. To be noted: in vivo; cited from earlier work. This is another data set of the same source.
The next data set has as its system breast cancer. To be noted: rats, without any evidence of toxicity; cited from earlier work.
For data set [10] the following is noted: at concentrations in normal strength grapefruit juice (approximately 0.0035%, or 35 ppm); cited from earlier work.
In data set [11] the test system is UVB-induced non-melanoma tumors. To be noted: mouse, in vivo; cited from earlier work.
For another data set, the system named is melanoma cells. To be noted: topical pretreatment but not post-treatment; cited from earlier work.
For the next data set, the system named is colon cancer. To be noted: rats, 8 mg/kg, p<0.01; cited from earlier work.
Data set [12] concerns inflammation-relevant gene expression in rat skin. To be noted: cited from earlier work.

Like-named read-outs stand apart in the source and are kept apart here.

As for `CC(C)=CCC/C(C)=C/CO` [Geraniol], the “effectiveness against tumor growth relative to perillyl alcohol” value in data set [1] is “about 5 fold”.
For the molecule `C/C=C/C(=O)C1=C(C)C=CCC1(C)C` [beta-damascenone], the LD50 entry in data set [2] is given as “greater than 2.0 g/kg”. For the same molecule, the skin irritation entry in the data set with skin [3], in the data set on skin [4] and in the data set on skin [6] was “No skin irritation” throughout. The “cutaneous inflammation and erythema associated with UVR exposure” value in [5] is “blocked”. Also, the “significantly altered up-regulated category at level 4 of the Gene Ontology Tree” value in data set [7] (UVR+terpene relative to UVR only, p<0.05) is given as “epidermal cell differentiation”. Besides, in data set [7], the “loricrin and vascular endothelial growth factor (VEGF) genes” value is reported as “upregulation”. Further, the matrix metalloproteinases result in [7] is given as “downregulation”. The “inflammation genes induced by UVR” value in data set [7] was “blocked”. Also, the inflammation-relevant genes entry in data set [7] (terpene+UVR relative to UVR only) was “strongly down-regulated”. For the same molecule, in data set [7] (terpene+UVR relative to UVR only, p<0.05), the “number of gene categories significantly down-regulated” value is reported as 13 categories. In addition, the “keratinizing layer in the epidermis, terpene+UVR in comparison to UVR” value in data set [8] (histological observations) is “greatly increased”. Besides, the keratinocyte formation entry in [8] is “increased keratinocyte formation”. Also, the phototoxicity or photoallergenity result in the data set with skin [9] was “No phototoxicity or photoallergenity”.
In the case of `C=C(C)[C@H]1CC=C(C)CC1` [d-limonene], the “initiation of breast cancer” value in the data set on breast cancer was “almost completely prevented”.
Turning to `C=C(C)[C@@H]1CCC2=CC(=O)C[C@@H](C)[C@]2(C)C1` [nootkatone], the “cutaneous inflammation and erythema associated with UVR exposure” value in data set [5] was “blocked”. The toxicity entry in data set [10] is reported as “does not appear to be toxic”. Besides, in data set [7], the “loricrin and vascular endothelial growth factor (VEGF) genes” value is given as “upregulation”; the matrix metalloproteinases result is recorded as “downregulation”; the “inflammation genes induced by UVR” value is “blocked”. The keratinocyte formation result in data set [8] was “increased keratinocyte formation”.
For `C=C(C)[C@@H]1CC=C(CO)CC1` [perillyl alcohol], the UVB-induced non-melanoma tumors entry in data set [11] is given as “reduction”. Also, in the data set with melanoma cells, the “levels of UV-induced reactive oxygen species” value is recorded as “markedly reduced”. Moreover, the “initiation of breast cancer” value in the data set on breast cancer is given as “almost completely prevented”.
Consider `Oc1ccc(C=Cc2cc(O)cc(O)c2)cc1` [resveratrol], for which, in the data set with colon cancer, the “inhibition of colon cancer” value was 67%.
Take vitamin A: the “inflammation-relevant gene expression alterations caused by x-rays blocked” value in [12] was “about 80%”. Moreover, the “gene expression in controls” value in data set [12] (unirradiated controls) is “no effect”.
